Laboratory results: patent US20130035256A1, “Chimeric Polypeptides Useful in Proximal and Dynamic High-Throughput Screening Methods” (ADDEX PHARMA SA, priority 2010, published 2013)

Legend:
chimeric M4R (RGLG-2) = molecular target: T1, chimeric M4R (RGLG-2) (Homo sapiens, UniProt P08173); experiment: BRET assay of the invention, cells co-expressing chimeric M4R (RGLG-2) and FP-Gγ9; assay type: cell-based; conditions: for Invention assay % stim / Invention assay % enh / Invention assay % inh: activity @ 30uM or 30 ug/ml, normalized to maximal effect of the orthosteric agonist; for Invention assay % stim: compound tested alone; for Invention assay % enh: in presence of EC20 value of Ach; for Invention assay % inh: in presence of EC80 of Ach
T1 construct: ID; NOs; expressed in transfected cells
T1 sequence (P08173 with tags, fused parts or gaps): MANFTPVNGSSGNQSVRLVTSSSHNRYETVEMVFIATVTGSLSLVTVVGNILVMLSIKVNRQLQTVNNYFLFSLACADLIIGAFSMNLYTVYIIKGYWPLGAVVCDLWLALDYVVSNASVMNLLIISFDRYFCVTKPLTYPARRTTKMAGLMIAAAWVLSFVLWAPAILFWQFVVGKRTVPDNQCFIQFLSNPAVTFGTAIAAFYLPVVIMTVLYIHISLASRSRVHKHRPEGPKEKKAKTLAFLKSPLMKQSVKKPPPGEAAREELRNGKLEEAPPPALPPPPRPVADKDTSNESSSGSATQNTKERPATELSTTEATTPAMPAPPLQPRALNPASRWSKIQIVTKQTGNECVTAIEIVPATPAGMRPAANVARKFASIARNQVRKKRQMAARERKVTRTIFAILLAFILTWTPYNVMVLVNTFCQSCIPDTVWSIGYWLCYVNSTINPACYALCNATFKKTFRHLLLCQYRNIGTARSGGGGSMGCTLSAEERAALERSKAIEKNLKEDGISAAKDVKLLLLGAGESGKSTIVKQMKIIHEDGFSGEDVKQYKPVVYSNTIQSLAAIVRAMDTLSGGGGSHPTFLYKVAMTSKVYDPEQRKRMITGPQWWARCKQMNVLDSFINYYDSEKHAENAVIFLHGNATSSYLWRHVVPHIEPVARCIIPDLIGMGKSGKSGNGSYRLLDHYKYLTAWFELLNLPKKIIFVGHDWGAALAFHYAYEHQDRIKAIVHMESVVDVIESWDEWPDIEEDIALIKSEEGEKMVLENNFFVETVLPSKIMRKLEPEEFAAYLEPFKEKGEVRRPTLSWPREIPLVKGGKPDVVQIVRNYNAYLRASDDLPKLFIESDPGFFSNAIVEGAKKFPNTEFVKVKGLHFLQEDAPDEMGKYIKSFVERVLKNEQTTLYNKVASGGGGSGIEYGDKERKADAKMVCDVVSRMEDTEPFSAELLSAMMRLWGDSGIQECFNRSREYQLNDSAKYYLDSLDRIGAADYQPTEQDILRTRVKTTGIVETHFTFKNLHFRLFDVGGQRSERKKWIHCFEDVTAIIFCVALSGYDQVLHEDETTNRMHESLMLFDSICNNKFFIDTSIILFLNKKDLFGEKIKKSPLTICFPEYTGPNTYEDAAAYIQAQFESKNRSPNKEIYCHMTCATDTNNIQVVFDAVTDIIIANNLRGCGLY
Protocol: The same cells as described for FIG. 10 A were used. […] The decrease of the signal below baseline in the PTX-treated condition confirms a constitutive activity that has been described for the M4R. […]
A typical experiment has the following sequence.
(§1) The assay of the present invention was compared with a state of the art calcium based assay. […] In calcium-based assay, a calcium flux is measured in cells co-expressing recombinant M4R and modified Gαq. In the assay in accordance with the present invention, BRET in measured in cells co-expressing a chimeric M4R according to RGLG-2 (construct and cell-line from FIG. 2C, Table 6) and FP-Gγ9 (as described in FIG. 10A). The data represent mean values and they are normalized to the maximal effect of the orthosteric agonist after the subtraction of the basal values.

M4R = molecular target: T2, M4R (Homo sapiens, UniProt P08173); experiment: Calcium-based assay, calcium flux in cells co-expressing recombinant M4R and modified Gαq; assay type: cell-based; conditions: activity @ 30uM or 30 ug/ml, normalized to maximal effect of the orthosteric agonist; for Calcium-based assay % stim: compound tested alone; for Calcium-based assay % enh: in presence of EC20 value of Ach; for Calcium-based assay % inh: in presence of EC80 of Ach
T2 construct: expressed in transfected cells
T2 sequence (P08173 1-479): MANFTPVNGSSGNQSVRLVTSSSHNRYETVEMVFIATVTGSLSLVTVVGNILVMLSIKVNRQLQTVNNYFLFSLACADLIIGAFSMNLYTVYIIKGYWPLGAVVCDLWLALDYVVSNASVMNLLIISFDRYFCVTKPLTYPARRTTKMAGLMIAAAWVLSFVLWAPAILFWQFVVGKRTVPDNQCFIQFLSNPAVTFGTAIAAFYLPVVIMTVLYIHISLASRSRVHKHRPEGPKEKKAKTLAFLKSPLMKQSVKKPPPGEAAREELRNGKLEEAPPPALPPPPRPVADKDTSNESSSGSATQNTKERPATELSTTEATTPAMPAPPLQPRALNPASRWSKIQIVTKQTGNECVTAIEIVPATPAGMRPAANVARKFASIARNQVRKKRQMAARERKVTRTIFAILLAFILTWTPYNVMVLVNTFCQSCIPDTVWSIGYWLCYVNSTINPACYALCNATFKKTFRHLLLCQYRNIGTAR
Protocol: as §1

## Cc1ccc2c(c1)C(=O)C1(O)CCN(c3ccccc3)C1=N2 (racemic) [(±)-Blebbistatin]
Chimeric M4R (RGLG-2)
  Invention assay % stim: −7.2%
  Invention assay % enh: −2.4%
  Invention assay % inh: 13.1%
M4R
  Calcium-based assay % stim: 130.0%
  Calcium-based assay % enh: 115.1%
  Calcium-based assay % inh: −46.9%

## NCCOB(c1ccccc1)c1ccccc1 [2-APB]
Chimeric M4R (RGLG-2)
  Invention assay % stim: −4.7%
  Invention assay % enh: 6.3%
  Invention assay % inh: 10.5%
M4R
  Calcium-based assay % stim: 3.7%
  Calcium-based assay % enh: 4.8%
  Calcium-based assay % inh: 30.3%

## CCCCCC(O)/C=C/C=O (stereo not shown) [4-Hydroxynonenal]
Chimeric M4R (RGLG-2)
  Invention assay % stim: −14.9%
  Invention assay % enh: −3.5%
  Invention assay % inh: 29.9%
M4R
  Calcium-based assay % stim: 1.4%
  Calcium-based assay % enh: −7.3%
  Calcium-based assay % inh: 118.9%

## COC(=O)C1=C(C)NC(C)=C([N+](=O)[O-])[C@@H]1c1ccccc1C(F)(F)F [(R)-(+)-Bay K 8644]
Chimeric M4R (RGLG-2)
  Invention assay % stim: −8.2%
  Invention assay % enh: 4.7%
  Invention assay % inh: 11.4%
M4R
  Calcium-based assay % stim: 26.8%
  Calcium-based assay % enh: 77.8%
  Calcium-based assay % inh: −66.5%

## COC(=O)C1=C(C)NC(C)=C([N+](=O)[O-])[C@H]1c1ccccc1C(F)(F)F [(S)-(−)-Bay K 8644]
Chimeric M4R (RGLG-2)
  Invention assay % stim: −8.0%
  Invention assay % enh: −3.6%
  Invention assay % inh: 14.6%
M4R
  Calcium-based assay % stim: 16.1%
  Calcium-based assay % enh: 59.8%
  Calcium-based assay % inh: −65.0%

## Nc1ncnc2c1ncn2[C@@H]1O[C@H](COP(=O)(O)OP(=O)(O)OP(=O)(O)O)[C@@H](O)[C@H]1O [ATP]
Chimeric M4R (RGLG-2); increasing concentrations of ligand
  activation of the chimeric M4R (BRET): lack of activation

## Cn1c2c(c(=O)n(C)c1=O)C(c1cccc(Br)c1)C1=C(N2)c2ccccc2C1=O (stereo not shown) [BPIPP]
Chimeric M4R (RGLG-2)
  Invention assay % stim: 1.3%
  Invention assay % enh: 8.3%
  Invention assay % inh: 1.5%
M4R
  Calcium-based assay % stim: 18.1%
  Calcium-based assay % enh: 62.6%
  Calcium-based assay % inh: −29.2%

## C[C@H]1CCC/C=C/[C@@H]2C[C@H](O)C[C@H]2[C@H](O)/C=C/C(=O)O1 [Brefeldin A]
Chimeric M4R (RGLG-2)
  Invention assay % stim: −2.5%
  Invention assay % enh: −1.9%
  Invention assay % inh: 12.7%
M4R
  Calcium-based assay % stim: 5.2%
  Calcium-based assay % enh: 32.3%
  Calcium-based assay % inh: −19.5%

## O=C(N/N=C/c1ccc(O)c(O)c1)c1cc2ccccc2cc1O [Dynamin Inhibitor I]
Chimeric M4R (RGLG-2)
  Invention assay % stim: −8.0%
  Invention assay % enh: 23.9%
  Invention assay % inh: −3.5%
M4R
  Calcium-based assay % stim: 13.4%
  Calcium-based assay % enh: 92.3%
  Calcium-based assay % inh: −73.7%

## COC(=O)c1c(C)[nH]c(C)c1C(=O)c1ccccc1Cc1ccccc1 [FPL 64176]
Chimeric M4R (RGLG-2)
  Invention assay % stim: −8.4%
  Invention assay % enh: 7.5%
  Invention assay % inh: 10.0%
M4R
  Calcium-based assay % stim: 48.9%
  Calcium-based assay % enh: 59.7%
  Calcium-based assay % inh: −66.6%

## C=C[C@@]1(C)CC(=O)[C@]2(O)[C@@]3(C)[C@@H](O)CCC(C)(C)[C@@H]3[C@H](O)[C@H](OC(C)=O)[C@@]2(C)O1 [FSK]
Chimeric M4R (RGLG-2)
  Invention assay % stim: −5.0%
  Invention assay % enh: −3.6%
  Invention assay % inh: 11.8%
M4R
  Calcium-based assay % stim: 57.8%
  Calcium-based assay % enh: 58.3%
  Calcium-based assay % inh: −22.4%

## CN(C)CCCn1cc(C2=C(c3c[nH]c4ccccc34)C(=O)NC2=O)c2ccccc21 [GF 109203X]
Chimeric M4R (RGLG-2)
  Invention assay % stim: 2.2%
  Invention assay % enh: 7.4%
  Invention assay % inh: 29.5%
M4R
  Calcium-based assay % stim: 154.3%
  Calcium-based assay % enh: 84.3%
  Calcium-based assay % inh: −10.0%
